Experimental data published in ChEMBL document CHEMBL3885861, “Open TG-GATES”.

Organism: Rattus norvegicus
Test: Open TG-GATES - Regimen: Single
Format: toxicity, organism-based, Sprague-Dawley
Parameters: regimen Single, gender Male, age 6 weeks
Conditions: in vivo, po, 0 mg/kg, route gavage, dose level Control; for APTT / Bas / Eos / Fbg / Hb / Ht / Lym / MCH / MCHC / MCV / Mono / Neu / PT / Plat / RBC / Ret / WBC: tissue Blood; for KIDNEY_L / KIDNEY_R / KIDNEY_TOTAL: tissue Kidney; for LIVER: tissue Liver; for ALP / ALT / AST / BUN / CRE / DBIL / GLC / K / LDH / Na / PL / RALB / TBIL / TC / TG / TP / gamma-GTP: tissue Plasma

## CC(CCc1ccccc1)NCC(O)c1ccc(O)c(C(N)=O)c1 (stereo not given) [LABETALOL]
3 h
  TERMINAL_BW: 214.7 g
  APTT: 16 s
  Bas: 0%
  Eos: 1%
  Fbg: 279.6 mg/dL
  Hb: 13 g/dL
  Ht: 38.7%
  Lym: 80.6%
  MCH: 21.4 pg
  MCHC: 33.6%
  MCV: 63.6 fL
  Mono: 3.4%
  Neu: 14.2%
  PT: 13.1 s
  Plat: 108.8 x10_4/uL
  RBC: 608.8 x10_4/ul
  Ret: 8%
  WBC: 90.7 x10_2/uL
  KIDNEY_L: 0.9 g
  KIDNEY_R: 0.9 g
  KIDNEY_TOTAL: 1.8 g
  LIVER: 9.4 g
  ALP: 1611 IU/L
  ALT: 45.8 IU/L
  AST: 77.4 IU/L
  BUN: 11.8 mg/dL
  CRE: 0.2 mg/dL
  DBIL: 0.014 mg/dL
  GLC: 184 mg/dL
  K: 3.8 meq/L
  LDH: 70.6 IU/L
  Na: 142.6 meq/L
  PL: 141.8 mg/dL
  RALB: 2.6 g/dL
  TBIL: 0.048 mg/dL
  TC: 83 mg/dL
  TG: 68.4 mg/dL
  TP: 5.5 g/dL
  gamma-GTP: 1.6 IU/L
6 h
  TERMINAL_BW: 213.8 g
  APTT: 16.4 s
  Bas: 0%
  Eos: 1%
  Fbg: 327.6 mg/dL
  Hb: 13.3 g/dL
  Ht: 39%
  Lym: 72.8%
  MCH: 21.8 pg
  MCHC: 34%
  MCV: 63.9 fL
  Mono: 3.4%
  Neu: 22.2%
  PT: 12.9 s
  Plat: 104.3 x10_4/uL
  RBC: 609.8 x10_4/ul
  Ret: 8.3%
  WBC: 100.8 x10_2/uL
  KIDNEY_L: 0.9 g
  KIDNEY_R: 1 g
  KIDNEY_TOTAL: 1.9 g
  LIVER: 8.9 g
  ALP: 1394.4 IU/L
  ALT: 39.8 IU/L
  AST: 73.2 IU/L
  BUN: 8.6 mg/dL
  CRE: 0.2 mg/dL
  DBIL: 0.004 mg/dL
  GLC: 170.2 mg/dL
  K: 4 meq/L
  LDH: 52.4 IU/L
  Na: 142.6 meq/L
  PL: 136.4 mg/dL
  RALB: 2.5 g/dL
  TBIL: 0.038 mg/dL
  TC: 86.2 mg/dL
  TG: 41.8 mg/dL
  TP: 5.4 g/dL
  gamma-GTP: 1.2 IU/L
9 h
  TERMINAL_BW: 217.8 g
  APTT: 16.8 s
  Bas: 0%
  Eos: 0.8%
  Fbg: 288 mg/dL
  Hb: 13.4 g/dL
  Ht: 39.5%
  Lym: 80.6%
  MCH: 21.7 pg
  MCHC: 33.9%
  MCV: 64 fL
  Mono: 2.4%
  Neu: 15.4%
  PT: 13.5 s
  RBC: 617.2 x10_4/ul
  Ret: 7.6%
  WBC: 96.4 x10_2/uL
  KIDNEY_L: 0.9 g
  KIDNEY_R: 0.9 g
  KIDNEY_TOTAL: 1.8 g
  LIVER: 8.8 g
  ALP: 1362.6 IU/L
  ALT: 39.4 IU/L
  AST: 72.8 IU/L
  BUN: 10.2 mg/dL
  CRE: 0.2 mg/dL
  DBIL: 0.01 mg/dL
  GLC: 175.6 mg/dL
  K: 3.8 meq/L
  LDH: 49.8 IU/L
  Na: 143 meq/L
  PL: 133 mg/dL
  RALB: 2.6 g/dL
  TBIL: 0.046 mg/dL
  TC: 75.8 mg/dL
  TG: 67.6 mg/dL
  TP: 5.5 g/dL
  gamma-GTP: 1.2 IU/L
24 h
  TERMINAL_BW: 220.3 g
  APTT: 16.3 s
  Bas: 0%
  Eos: 1%
  Fbg: 294.8 mg/dL
  Hb: 13 g/dL
  Ht: 38%
  Lym: 78.2%
  MCH: 21.5 pg
  MCHC: 34.1%
  MCV: 63.1 fL
  Mono: 2.6%
  Neu: 17.4%
  PT: 12.8 s
  Plat: 119 x10_4/uL
  RBC: 603.2 x10_4/ul
  Ret: 7.9%
  WBC: 78.3 x10_2/uL
  KIDNEY_L: 0.9 g
  KIDNEY_R: 0.9 g
  KIDNEY_TOTAL: 1.9 g
  LIVER: 10.2 g
  ALP: 1641.6 IU/L
  ALT: 49.8 IU/L
  AST: 75.6 IU/L
  BUN: 15.8 mg/dL
  CRE: 0.2 mg/dL
  DBIL: 0.012 mg/dL
  GLC: 182.2 mg/dL
  K: 4.4 meq/L
  LDH: 59 IU/L
  Na: 141.8 meq/L
  PL: 150.8 mg/dL
  RALB: 2.7 g/dL
  TBIL: 0.03 mg/dL
  TC: 88.4 mg/dL
  TG: 82 mg/dL
  TP: 5.7 g/dL
  gamma-GTP: 1.2 IU/L
